One assay has as its system hippocampal neurons. Description: Neuroprotective action: experimental brain trauma of the rat (lateral fluid percussion). It is filed as in vivo. The settings on record: 20 + 20 mg/kg i.p., 15 + 120 min post trauma; 14 days after traumatization. An excerpt: The lateral fluid percussion method (McIntosh TK, Neuroscience 28, 233 244, 1989) was used in order to produce an experimental brain trauma in the rat which is suitable for the testing of potential neuroprotective substances. By means of this technique, controlled and consistent tissue damage was produced underneath the site of the impact, which included the neocortex, the hippocampus and the thalamus.
The right parietotemporal region of the skull was exposed in the anesthetized rat. The skull was trepanned through the parietal cortex (about 4 mm diameter), the dura being left intact. A Luer lock attachment was fixed to the skull using dental cement through the trepanation. After the dental cement had hardened, the rat was connected to the fluid percussion apparatus according to McIntosh. This consisted of a cylinder filled with 0.9% NaCl solution, one end of the cylinder being closed by a piston, while the other end was connected via a pressure transducer to a Luer lock attachment. […]
The rats were sacrificed 14 days after traumatization for removal of the brain. […] For the quantification of the neuronal damage, cell counts were carried out bilaterally in the rostral hippocampus; the proportion of intact cells in the dentate gyrus was determined on the traumatized (right) and the (left) opposite side. […]

Assay [1] has as its target T1, h5-HT5 receptor (Homo sapiens, UniProt P47898).
T1 construct: expressed in transfected cells; host or cells: HEK293 cells (CHO cells obtained analogously), pcDNA3 plasmid, neomycin selection; membranes prepared
Nature of the assay: [3H]-5-CT binding competition on h5-HT5 membranes.
Procedure: Membranes obtained according to Example 2 (200 μl) were incubated in the presence of 2 nM [^3H]-5-CT in a total volume of 600 μl in buffer B with increasing concentrations of selected compounds. After an incubation time of 75 min at 30° C., the samples were filtered at 4° C. through GF/B filters embedded in 0.3% polyethyleneimide using buffer B. The filters were washed with 9 ml of buffer B. The radioactivity retained on the filters was determined as in Reference Example 3.
According to Reference Example 4, the binding affinities of serotoninergic compounds were determined by means of [^3H]-5-CT binding competition.

The subject of another assay is male Long Evans rats. Nature of the assay: Neuroprotective action: MCA occlusion (experimental cerebral stroke). The note with it: 90 min after MCA occlusion, infarct volume 22 hours after occlusion. In kind it is in vivo, rat.
In assay [2] the target is T1, h5-HT5 receptor. Nature of the assay: Saturation binding of [3H]-5-CT to membranes of h5-HT5 receptor-expressing cells. The settings on record: 30° C., 90 min, read-out: dissociation constant Kd. The method, then:
The gene coding for the human 5-HT5 receptor was isolated from human tissues in a known manner by means of 3′-5′-RT-PCR (RACE system, Boehringer Mannheim). The gene sequence was then inserted into a plasmid carrying the neomycin resistance gene (pcDNA3; Invitrogen, Germany) and amplified in E. coli according to the manufacturer's instructions. A preparation of the resulting plasmid was mixed with Lipofectamin® (Gibco Life-Sciences, Germany), and HEK293 cells were incubated with a thin layer of this transfection mixture in petri dishes (2.5 cm). The transfection mixture was then replaced by neomycin-containing culture medium. […]
The methodology is essentially known (Ress S. et al., FEBS Letters 335:242-246 (1994)). […] The filters were washed at 4° C. with 9 ml of buffer B. The radioactivity retained on the filters was measured by means of liquid scintillation counting, 5 ml of Ultima-Gold (Packard) being used.
The saturation parameters of the [^3H]-5-CT binding was determined both by nonlinear regression analysis and from linear plots using the SigmaPlot software (Jandel Scientific, Germany). Competition curves were set up in which the radioactive binding is expressed as a percentage proportion of the total binding. Half maximal inhibition constants IC50 and Hill-coefficients (nH) were determined by means of nonlinear regression analysis. […]

Where [3] appears, read: 2 + 1 mg/kg + mg/kg/h i.v. bolus then infusion.

Like-named read-outs stand apart in the source and are kept apart here.

T1 sequence (P47898 whole entry): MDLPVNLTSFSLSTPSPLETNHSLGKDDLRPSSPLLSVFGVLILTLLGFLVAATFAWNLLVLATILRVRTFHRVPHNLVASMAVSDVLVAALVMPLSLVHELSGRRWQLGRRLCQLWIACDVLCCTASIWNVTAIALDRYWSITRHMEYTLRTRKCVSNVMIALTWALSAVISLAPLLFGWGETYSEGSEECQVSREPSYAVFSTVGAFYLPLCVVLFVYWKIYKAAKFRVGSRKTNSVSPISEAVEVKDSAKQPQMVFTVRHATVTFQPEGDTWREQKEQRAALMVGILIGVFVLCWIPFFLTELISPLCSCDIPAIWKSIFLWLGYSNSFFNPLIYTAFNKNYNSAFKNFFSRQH
Procedure for male Long Evans rats: The experiments were performed on male Long Evans rats. Under nitrous oxide-assisted halothane anesthesia, the middle cerebral artery (MCA) was severed and permanently ligated distally, as described in the literature. The resulting infarct volume was determined 22 hours after MCA occlusion.

With `COc1ccc2cccc(N3CCN(CCn4cnc5sc6c(c5c4=O)CCN(C)C6)CC3)c2c1` [Compound C], the “Quotient m ± sm of neuron count of the trauma side to the contralateral side (hippocampus)” value in the assay with hippocampal neurons came out at 0.56 ± 0.05. Besides, the affinity on h5-HT5 receptor [1], expressed as Ki, was 0.237 µM. Besides, the “Infarct volume, % of the control” value in the assay on male Long Evans rats (1 + 0.5 mg/kg + mg/kg/h i.v. bolus then infusion) is given as 67 % of the control.
Regarding `CCCN(CCC)C1CCc2cccc(O)c2C1` (stereo not drawn) [R(+)-8-OH-DPAT, 8-hydroxy-2-(di-n-propylamino)tetralin, reference compound], in the assay with male Long Evans rats (setting [3]), the “Infarct volume, % of the control [mean value ± SD]” value was 72 ± 32 % of the control.
`CN1CCc2c(sc3ncn(CCN4CCN(c5cccc(C(F)(F)F)c5)CC4)c(=O)c23)C1` [Compound A, 3,4,5,6,7,8-Hexahydro-7-methyl-3-[2-(4-(3-trifluoromethyl-phenyl)piperazin-1-yl)ethyl]pyrido[4′,3′:4,5]thieno[2,3-d]-pyrimidin-4-one] registered a Ki at h5-HT5 receptor [1] of 0.661 µM. In addition, the “Infarct volume, % of the control [mean value ± SD]” value with male Long Evans rats (4 + 2 mg/kg + mg/kg/h i.v. bolus then infusion) is given as 62 ± 18 % of the control.
The compound `NCCc1c[nH]c2ccc(C(N)=O)cc12` [Compound 5-CT, 5-carboxamidotryptamine, reference compound] yielded a Ki at h5-HT5 receptor [1] (2 nM [3H]-5-CT, 75 min at 30° C., Ki=IC50/(1+C/Kd)) of 0.00144 µM. Also, the Kd on h5-HT5 receptor [2] amounted to 0.00057 µM.
For the compound `CCN1CCc2sc3ncn(CCN4CCN(c5cccc6ccccc56)CC4)c(=O)c3c2C1` [Compound B, 3,4,5,6,7,8-Hexahydro-6-ethyl-3-[2-(4-(1-naphthyl)piperazin-1-yl)ethyl]pyrido[3′,4′:4,5]thieno[2,3-d]pyrimidin-4-one], the “Quotient m ± sm of neuron count of the trauma side to the contralateral side (hippocampus)” value with hippocampal neurons is recorded as 0.64 ± 0.03. Moreover, affinity on h5-HT5 receptor [1] was put at a Ki of 0.124 µM. Further, the “Infarct volume, % of the control [mean value ± SD]” value in the assay with male Long Evans rats (setting [3]) is given as 66 ± 19 % of the control.

For the origin of these results see patent publication US6750221B1 (BASF Aktiengesellschaft, priority 1999, dated 2004).
